Test results taken from PubChem BioAssay AID1982 (Sanford-Burnham Center for Chemical Genomics, 2009).
Active and inactive are the calls of the source. How the calls were made is not given here.

Experiments:
Test in all cases: kinase panel binding selectivity, selectivity assay, biochemical, KINOMEscan (AID 1982)
FGFR2 = conditions: KINOMEscan 353-kinase binding panel, qPCR, at 10 µM, active compounds read low
[1] = biological target: Tyrosine-protein kinase ABL1 (Homo sapiens) (UniProt P00519); conditions: KINOMEscan 353-kinase binding panel, qPCR, at 10 µM, active compounds read low
[2] = biological target: Serine/threonine-protein kinase 17A (Homo sapiens) (UniProt Q9UEE5); conditions: KINOMEscan 353-kinase binding panel, qPCR; DRAK1; at 10 µM; active compounds read low
CDKL2 = conditions: KINOMEscan 353-kinase binding panel, qPCR, at 10 µM, active compounds read low
ULK3 = conditions: KINOMEscan 353-kinase binding panel, qPCR, at 10 µM, active compounds read low
DCAMKL3 = conditions: KINOMEscan 353-kinase binding panel, qPCR, at 10 µM, active compounds read low
MAP3K4 = conditions: KINOMEscan 353-kinase binding panel, qPCR, at 10 µM, active compounds read low
[3] = biological target: LIM domain kinase 1 (Homo sapiens) (UniProt P53667); conditions: KINOMEscan 353-kinase binding panel, qPCR; LIMK1; at 10 µM; active compounds read low
[4] = biological target: Vascular endothelial growth factor receptor 2 (Homo sapiens) (UniProt P35968); conditions: KINOMEscan 353-kinase binding panel, qPCR; VEGFR2; at 10 µM; active compounds read low
ABL2 = conditions: KINOMEscan 353-kinase binding panel, qPCR, at 10 µM, active compounds read low
PIK3CA(E545K) = conditions: KINOMEscan 353-kinase binding panel, qPCR, at 10 µM, active compounds read low
PKAC-beta = conditions: KINOMEscan 353-kinase binding panel, qPCR, at 10 µM, active compounds read low
[5] = biological target: Serine/threonine-protein kinase PAK 6 (Homo sapiens) (UniProt Q9NQU5); conditions: KINOMEscan 353-kinase binding panel, qPCR; PAK6; at 10 µM; active compounds read low
RPS6KA2(Kin.Dom.1) = conditions: KINOMEscan 353-kinase binding panel, qPCR, at 10 µM, active compounds read low
[6] = biological target: Proto-oncogene tyrosine-protein kinase receptor Ret (Homo sapiens) (UniProt P07949); conditions: KINOMEscan 353-kinase binding panel, qPCR, at 10 µM, active compounds read low
CAMK4 = conditions: KINOMEscan 353-kinase binding panel, qPCR, at 10 µM, active compounds read low
[7] = biological target: Serine/threonine-protein kinase pim-2 (Homo sapiens) (UniProt Q9P1W9); conditions: KINOMEscan 353-kinase binding panel, qPCR; PIM2; at 10 µM; active compounds read low
RPS6KA6(Kin.Dom.2) = conditions: KINOMEscan 353-kinase binding panel, qPCR, at 10 µM, active compounds read low
[8] = biological target: Cyclin-dependent kinase 19 (Homo sapiens) (UniProt Q9BWU1); conditions: KINOMEscan 353-kinase binding panel, qPCR; CDK11; at 10 µM; active compounds read low
[9] = biological target: Dual specificity mitogen-activated protein kinase kinase 1 (Homo sapiens) (UniProt Q02750); conditions: KINOMEscan 353-kinase binding panel, qPCR; MEK1; at 10 µM; active compounds read low
[10] = biological target: ALK tyrosine kinase receptor (Homo sapiens) (UniProt Q9UM73); conditions: KINOMEscan 353-kinase binding panel, qPCR, at 10 µM, active compounds read low
[11] = biological target: cGMP-dependent protein kinase 2 (Homo sapiens) (UniProt Q13237); conditions: KINOMEscan 353-kinase binding panel, qPCR; PRKG2; at 10 µM; active compounds read low
[12] = biological target: Serine/threonine-protein kinase D2 (Homo sapiens) (UniProt Q9BZL6); conditions: KINOMEscan 353-kinase binding panel, qPCR; PRKD2; at 10 µM; active compounds read low
PKN1 = conditions: KINOMEscan 353-kinase binding panel, qPCR, at 10 µM, active compounds read low
CDK3 = conditions: KINOMEscan 353-kinase binding panel, qPCR, at 10 µM, active compounds read low
ACVR2B = conditions: KINOMEscan 353-kinase binding panel, qPCR, at 10 µM, active compounds read low
[13] = biological target: BDNF/NT-3 growth factors receptor (Homo sapiens) (UniProt Q16620); conditions: KINOMEscan 353-kinase binding panel, qPCR; TRKB; at 10 µM; active compounds read low
[14] = biological target: Casein kinase I isoform gamma-2 (Homo sapiens) (UniProt P78368); conditions: KINOMEscan 353-kinase binding panel, qPCR; CSNK1G2; at 10 µM; active compounds read low
MUSK = conditions: KINOMEscan 353-kinase binding panel, qPCR, at 10 µM, active compounds read low
RPS6KA6(Kin.Dom.1) = conditions: KINOMEscan 353-kinase binding panel, qPCR, at 10 µM, active compounds read low
[15] = biological target: Vascular endothelial growth factor receptor 1 (Homo sapiens) (UniProt P17948); conditions: KINOMEscan 353-kinase binding panel, qPCR; FLT1; at 10 µM; active compounds read low
TAOK3 = conditions: KINOMEscan 353-kinase binding panel, qPCR, at 10 µM, active compounds read low
[16] = biological target: Tyrosine-protein kinase receptor TYRO3 (Homo sapiens) (UniProt Q06418); conditions: KINOMEscan 353-kinase binding panel, qPCR, at 10 µM, active compounds read low

Measured: percent of control binding

Proto-oncogene tyrosine-protein kinase receptor Ret (Homo sapiens), sequence (P07949 whole entry, looked up): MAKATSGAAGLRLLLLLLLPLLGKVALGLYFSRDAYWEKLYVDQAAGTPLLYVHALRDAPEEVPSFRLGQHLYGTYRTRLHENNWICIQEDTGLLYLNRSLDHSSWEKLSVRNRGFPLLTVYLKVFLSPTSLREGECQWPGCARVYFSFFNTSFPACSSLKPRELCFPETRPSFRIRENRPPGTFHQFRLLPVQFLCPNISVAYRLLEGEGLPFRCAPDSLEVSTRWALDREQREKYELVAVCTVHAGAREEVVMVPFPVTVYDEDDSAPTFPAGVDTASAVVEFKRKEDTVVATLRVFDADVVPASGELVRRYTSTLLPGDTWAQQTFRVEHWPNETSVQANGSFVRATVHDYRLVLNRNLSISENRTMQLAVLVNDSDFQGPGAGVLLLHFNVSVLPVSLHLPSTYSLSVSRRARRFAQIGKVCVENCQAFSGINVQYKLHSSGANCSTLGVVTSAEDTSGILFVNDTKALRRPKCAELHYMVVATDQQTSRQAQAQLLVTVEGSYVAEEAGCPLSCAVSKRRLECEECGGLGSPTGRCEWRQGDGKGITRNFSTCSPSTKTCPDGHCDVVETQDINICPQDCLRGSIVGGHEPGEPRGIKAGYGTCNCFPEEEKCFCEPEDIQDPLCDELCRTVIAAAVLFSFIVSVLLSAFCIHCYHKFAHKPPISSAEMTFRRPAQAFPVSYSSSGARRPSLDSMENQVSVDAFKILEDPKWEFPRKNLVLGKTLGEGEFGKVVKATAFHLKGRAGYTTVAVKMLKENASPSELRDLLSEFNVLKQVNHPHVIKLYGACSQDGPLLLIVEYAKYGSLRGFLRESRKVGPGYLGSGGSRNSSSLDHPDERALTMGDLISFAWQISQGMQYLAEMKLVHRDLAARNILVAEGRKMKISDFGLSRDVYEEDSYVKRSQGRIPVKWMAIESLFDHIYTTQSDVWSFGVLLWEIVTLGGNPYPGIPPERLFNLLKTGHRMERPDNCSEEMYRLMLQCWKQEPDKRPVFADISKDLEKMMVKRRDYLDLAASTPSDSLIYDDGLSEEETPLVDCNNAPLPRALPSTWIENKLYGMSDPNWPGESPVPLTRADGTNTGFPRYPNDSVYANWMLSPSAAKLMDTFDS
Tyrosine-protein kinase ABL1 (Homo sapiens), sequence (P00519 whole entry, looked up): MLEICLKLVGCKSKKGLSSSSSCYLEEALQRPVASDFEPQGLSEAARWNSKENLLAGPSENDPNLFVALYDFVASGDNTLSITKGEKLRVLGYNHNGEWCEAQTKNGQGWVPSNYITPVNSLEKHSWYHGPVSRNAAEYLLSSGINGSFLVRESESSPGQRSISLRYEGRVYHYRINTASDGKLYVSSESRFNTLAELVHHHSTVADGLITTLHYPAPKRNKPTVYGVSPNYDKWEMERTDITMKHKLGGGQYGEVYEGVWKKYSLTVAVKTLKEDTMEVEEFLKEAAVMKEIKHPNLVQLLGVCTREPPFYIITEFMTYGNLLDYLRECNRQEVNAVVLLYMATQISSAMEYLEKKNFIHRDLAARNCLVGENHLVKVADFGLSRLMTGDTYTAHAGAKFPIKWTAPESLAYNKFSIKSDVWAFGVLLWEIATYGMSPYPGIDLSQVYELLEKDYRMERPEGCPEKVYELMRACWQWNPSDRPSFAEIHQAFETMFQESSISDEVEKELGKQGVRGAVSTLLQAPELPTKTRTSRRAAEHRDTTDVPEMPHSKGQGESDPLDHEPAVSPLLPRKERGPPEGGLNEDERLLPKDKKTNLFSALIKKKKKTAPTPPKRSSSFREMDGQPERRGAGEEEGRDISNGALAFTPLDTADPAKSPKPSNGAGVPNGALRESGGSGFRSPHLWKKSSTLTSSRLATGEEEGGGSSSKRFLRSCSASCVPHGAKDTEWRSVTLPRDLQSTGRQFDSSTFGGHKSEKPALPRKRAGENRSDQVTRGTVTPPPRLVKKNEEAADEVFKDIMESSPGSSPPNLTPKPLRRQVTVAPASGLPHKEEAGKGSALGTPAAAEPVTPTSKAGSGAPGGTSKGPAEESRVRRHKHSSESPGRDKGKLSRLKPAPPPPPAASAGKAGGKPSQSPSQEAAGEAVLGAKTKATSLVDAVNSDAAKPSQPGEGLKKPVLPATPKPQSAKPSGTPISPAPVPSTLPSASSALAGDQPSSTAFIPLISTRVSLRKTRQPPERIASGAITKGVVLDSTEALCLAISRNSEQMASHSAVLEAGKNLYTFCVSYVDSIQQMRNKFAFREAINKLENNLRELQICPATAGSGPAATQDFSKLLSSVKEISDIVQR
cGMP-dependent protein kinase 2 (Homo sapiens), sequence (Q13237 whole entry, looked up): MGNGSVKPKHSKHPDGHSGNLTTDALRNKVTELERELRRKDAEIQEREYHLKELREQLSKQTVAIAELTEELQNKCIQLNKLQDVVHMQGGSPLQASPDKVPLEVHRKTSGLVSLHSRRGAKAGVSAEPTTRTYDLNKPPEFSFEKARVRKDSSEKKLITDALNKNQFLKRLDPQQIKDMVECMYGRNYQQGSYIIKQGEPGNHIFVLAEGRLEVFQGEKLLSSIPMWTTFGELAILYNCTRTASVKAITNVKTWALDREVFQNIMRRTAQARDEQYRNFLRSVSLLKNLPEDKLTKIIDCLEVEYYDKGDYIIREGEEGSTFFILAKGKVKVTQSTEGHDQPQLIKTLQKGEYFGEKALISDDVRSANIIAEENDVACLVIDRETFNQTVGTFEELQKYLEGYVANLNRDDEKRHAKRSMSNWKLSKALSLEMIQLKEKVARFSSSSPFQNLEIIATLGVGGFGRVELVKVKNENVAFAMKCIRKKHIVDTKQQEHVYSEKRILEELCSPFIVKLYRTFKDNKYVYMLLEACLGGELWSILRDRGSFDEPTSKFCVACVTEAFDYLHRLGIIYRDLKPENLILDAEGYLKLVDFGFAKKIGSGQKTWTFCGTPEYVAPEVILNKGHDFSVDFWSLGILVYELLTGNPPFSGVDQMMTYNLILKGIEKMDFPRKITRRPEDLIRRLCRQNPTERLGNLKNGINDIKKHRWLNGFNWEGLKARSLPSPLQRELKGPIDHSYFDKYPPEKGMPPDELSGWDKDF
Casein kinase I isoform gamma-2 (Homo sapiens), sequence (P78368 whole entry, looked up, canonical isoform): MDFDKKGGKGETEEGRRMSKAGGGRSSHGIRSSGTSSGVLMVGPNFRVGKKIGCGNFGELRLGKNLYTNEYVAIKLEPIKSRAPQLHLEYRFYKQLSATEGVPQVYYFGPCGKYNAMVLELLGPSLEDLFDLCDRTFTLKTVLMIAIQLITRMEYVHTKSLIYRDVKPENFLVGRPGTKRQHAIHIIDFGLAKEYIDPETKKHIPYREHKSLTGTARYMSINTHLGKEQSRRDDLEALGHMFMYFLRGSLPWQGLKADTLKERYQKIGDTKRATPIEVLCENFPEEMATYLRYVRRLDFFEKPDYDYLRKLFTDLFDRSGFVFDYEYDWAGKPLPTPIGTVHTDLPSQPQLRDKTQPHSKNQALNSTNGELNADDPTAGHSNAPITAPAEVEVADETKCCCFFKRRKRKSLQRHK
Serine/threonine-protein kinase PAK 6 (Homo sapiens), sequence (Q9NQU5 whole entry, looked up): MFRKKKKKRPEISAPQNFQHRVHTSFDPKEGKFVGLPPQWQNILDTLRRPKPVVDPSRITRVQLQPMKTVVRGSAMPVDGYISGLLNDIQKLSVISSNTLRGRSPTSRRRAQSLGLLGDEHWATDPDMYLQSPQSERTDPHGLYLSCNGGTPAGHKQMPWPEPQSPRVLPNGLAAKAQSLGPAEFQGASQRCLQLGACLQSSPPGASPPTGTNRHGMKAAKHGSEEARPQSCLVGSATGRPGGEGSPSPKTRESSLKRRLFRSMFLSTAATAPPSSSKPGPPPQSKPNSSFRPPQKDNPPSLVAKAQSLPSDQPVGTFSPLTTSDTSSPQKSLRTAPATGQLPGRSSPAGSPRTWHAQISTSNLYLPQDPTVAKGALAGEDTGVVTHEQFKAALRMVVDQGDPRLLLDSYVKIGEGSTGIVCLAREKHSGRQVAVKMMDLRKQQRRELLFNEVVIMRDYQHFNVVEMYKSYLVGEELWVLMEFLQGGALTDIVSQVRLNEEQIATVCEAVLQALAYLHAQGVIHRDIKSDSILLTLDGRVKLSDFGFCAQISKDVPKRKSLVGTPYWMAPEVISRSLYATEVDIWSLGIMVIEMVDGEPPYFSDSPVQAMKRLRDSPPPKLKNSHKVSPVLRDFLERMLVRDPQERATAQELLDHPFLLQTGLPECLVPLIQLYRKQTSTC
Serine/threonine-protein kinase 17A (Homo sapiens), sequence (Q9UEE5 whole entry, looked up): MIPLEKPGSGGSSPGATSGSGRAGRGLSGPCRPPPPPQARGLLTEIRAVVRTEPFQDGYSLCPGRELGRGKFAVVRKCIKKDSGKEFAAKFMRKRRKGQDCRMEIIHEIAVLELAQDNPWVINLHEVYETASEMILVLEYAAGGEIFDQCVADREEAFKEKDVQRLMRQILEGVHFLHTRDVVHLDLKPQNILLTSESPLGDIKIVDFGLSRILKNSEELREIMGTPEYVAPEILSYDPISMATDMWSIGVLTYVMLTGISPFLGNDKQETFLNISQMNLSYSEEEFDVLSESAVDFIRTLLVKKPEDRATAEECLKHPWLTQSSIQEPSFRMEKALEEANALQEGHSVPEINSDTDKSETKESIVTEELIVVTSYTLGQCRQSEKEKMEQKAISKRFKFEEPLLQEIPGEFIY
Cyclin-dependent kinase 19 (Homo sapiens), sequence (Q9BWU1 whole entry, looked up): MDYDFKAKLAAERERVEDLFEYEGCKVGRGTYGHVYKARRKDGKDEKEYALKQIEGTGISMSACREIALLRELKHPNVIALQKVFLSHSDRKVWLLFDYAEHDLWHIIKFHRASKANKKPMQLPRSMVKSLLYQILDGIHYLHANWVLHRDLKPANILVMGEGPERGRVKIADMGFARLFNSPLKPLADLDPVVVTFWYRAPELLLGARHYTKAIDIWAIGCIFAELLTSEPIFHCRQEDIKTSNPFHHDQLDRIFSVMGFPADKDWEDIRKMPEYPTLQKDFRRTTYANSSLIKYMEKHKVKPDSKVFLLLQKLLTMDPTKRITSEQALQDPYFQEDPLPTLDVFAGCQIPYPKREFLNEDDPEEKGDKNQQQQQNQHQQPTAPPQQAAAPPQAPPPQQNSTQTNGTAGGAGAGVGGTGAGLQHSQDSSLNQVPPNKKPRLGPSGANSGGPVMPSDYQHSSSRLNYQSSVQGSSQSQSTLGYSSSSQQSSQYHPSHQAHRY

Cc1cc2nc(NCCCO)n(CC(=O)c3cc(C(C)(C)C)c(O)c(C(C)(C)C)c3)c2cc1C
inactive: FGFR2 100% | [1] 100% | [1]; ABL1(E255K) 94% | [1]; ABL1(F317I) 100% | [1]; ABL1(F317L) 92% | [1]; ABL1(H396P) 98% | [1]; ABL1(M351T) 100% | [1]; ABL1(Q252H) 100% | [1]; ABL1(T315I) 86% | [1]; ABL1(Y253F) 100% | [2] 89% | CDKL2 96% | ULK3 100% | DCAMKL3 100% | MAP3K4 90% | [3] 95% | [4] 88% | ABL2 85% | PIK3CA(E545K) 100% | PKAC-beta 95% | [5] 76% | RPS6KA2(Kin.Dom.1) 90% | [6] 97% | [6]; RET(M918T) 100% | [6]; RET(V804L) 100% | [6]; RET(V804M) 99% | CAMK4 100% | [7] 94% | RPS6KA6(Kin.Dom.2) 100% | [8] 75% | [9] 75% | [10] 100% | [11] 100% | [12] 91% | PKN1 100% | CDK3 82% | ACVR2B 100% | [13] 100% | [14] 100% | MUSK 100% | RPS6KA6(Kin.Dom.1) 97% | [15] 100% | TAOK3 99% | [16] 100%
